According to PMC8003485, “Synthesis and Evaluation of Novel α-Aminoamides Containing Benzoheterocyclic Moiety for the Treatment of Pain” (Molecules, 2021):
Read-outs that look alike come from different tables or passages of the source.

Key:
hNav1.7 = target: T1, hNav1.7 (Homo sapiens, UniProt Q15858); assay: Whole-cell patch clamp assay for hNav1.7 inhibition (HEK293 cells stably expressing hNav1.7); format: cell-based; details: for inhibition at 10 µM: HEK293, TTX-sensitive Nav1.7 current, mean ± SD; for IC50: Table 4, TTX-sensitive inactivated Nav1.7 current
T1 construct: expressed in transfected cells; host or cells: HEK293
Experimental: The compounds were tested as hNav1.7 peak current inhibitors at room temperature using human embryonic kidney 293 cells stably expressing hNav1.7. The holding voltage was depolarized to 0 mV from −120 mV for 20 ms and restored to −75 mV for 8 s. After that, the membrane potential was recovered to −120 mV for 20 ms and then depolarized to 0 mV for another 20 ms. Finally, the voltage was renewed to −120 mV for 30 ms. The potential was applied every 20 s. The compounds were administered when the voltage of hNav1.7 recorded by the whole-cell patch clamp was stable. Every compound concentration was tested for 5 min, and all compounds were tested at several concentrations and with multiple cells.

ICR (CD−1) male mice [1] = assay: Formalin test (mouse, phase II paw licking); format: in vivo; details: 10 mg/kg; for inhibition in vivo at 10 mg/kg: Mus musculus, ip, read-out: % Analgesia (formalin test); for Percentage of analgesia relative to ralfinamide (times higher): formalin test
Experimental: The formalin test was carried out using the method described previously. During the formalin test, Institute of Cancer Research (ICR; CD−1) male mice (weight: 22–25 g) were acclimated to the environment for two days before the experiment with food and water available freely. The mice were housed under a 12 h/12 h light/dark cycle. The temperature and humidity of the room were kept at 25 ± 2 °C and 50–60%, respectively. The mice were divided into a vehicle group, a ralfinamide group, and test compound groups randomly, with eight mice in each group. All compounds were dissolved in saline and administered by intraperitoneal injection (n = 8) or intragastric administration by mouth (n = 8) at 10 mg/kg. The vehicle group was given the same volume of saline.
After administration, the mice were placed into polyvinyl chloride (PVC) observation chambers. Thirty minutes later, the mice were injected subcutaneously with 20 μL of 2.7% formalin solution into the surface of their right hind paw and were returned to their PVC chambers immediately to observe their behavior. The cumulative time each mouse licked its right hind paw during phase II (15–30 min) was recorded as its painful time in phase II. The analgesic effects of the compounds were presented as the mean ± standard deviation. The data were analyzed by SPSS using one-way analysis of variance followed by Dunnett’s test. The analgesic activity of the test compounds was calculated according to the following formula. %Analgesia=Average Time (Vehicle)−Average Time (Drug)/Average Time (Vehicle)× 100%

ICR (CD-1) male mice = assay: Acetic acid-induced writhing test; format: in vivo; details: 10 mg/kg, i.p.; writhes in 20 min; mean ± SD, n = 6
Experimental: The writhing test was performed according to a previously reported method. The ICR (CD-1) male mice (weight: 22–25 g) were treated as for the formalin test in the same environment. The mice were divided into a vehicle group, a ralfinamide group, and test compound groups randomly, with six mice in each group. All compounds were dissolved in saline and administered by intraperitoneal injection at 10 mg/kg. The vehicle group was given the same volume of saline. After administration, the mice were placed into PVC chambers. Thirty minutes later, the mice were injected with 1% acetic acid solution at 10 mL/kg by intraperitoneal injection and placed into the observation chambers immediately to record the number of writhes each mouse had in 20 min. The results were presented as the mean ± standard deviation. The analytical method was the same as that for the formalin test, and the analgesic activity of each compound was calculated by the following formula. %Analgesia=Average Number (Vehicle)−Average Number (Drug)/Average Number (Vehicle)× 100%

ICR (CD−1) male mice [2] = assay: Formalin test (mouse, phase II paw licking); format: in vivo; details: 20 mg/kg, dose-effect relationship assay
hNav1.8 = target: T2, hNav1.8 (Homo sapiens, UniProt Q9Y5Y9); assay: Whole-cell patch clamp assay for hNav1.8 inhibition (CHO cells stably expressing hNav1.8); format: cell-based; details: Nav1.8 inactivated state Na+ currents
T2 construct: expressed in transfected cells; host or cells: CHO
Experimental: The whole-cell patch clamp assay assessing the hNav1.8 current was carried out at room temperature with Chinese hamster ovary cells stably expressing hNav1.8. The holding voltage of the membrane was transferred to 0 mV from −120 mV for 50 ms and then restored to −50 mV for 8 s. After that, the membrane potential was renewed to −120 mV for 20 ms, which was followed by a depolarization to 0 mV for 50 ms. Finally, the potential was recovered to the holding voltage of −120 mV for 30 ms. This process was performed every 20 s. The compounds were administered when the voltage of hNav1.8 was stable. Every compound concentration was tested for 5 min, and all compounds were tested at several concentrations and with multiple cells.

hNav1.5 = target: T3, hNav1.5 (Homo sapiens, UniProt Q14524); assay: Assay for hNav1.5 inhibition (HEK293 cells stably expressing hNav1.5); format: cell-based; details: for inhibition at 10 µM: HEK293, read-out: Inhibitory Effect to Nav1.5; for Inhibitory activity against Nav1.5 (in words): similarly to ralfinamide, low selectivity over the cardiac sodium channel
T3 construct: expressed in transfected cells; host or cells: HEK293
Experimental: The inhibition of the compounds to hNav1.5 peak current was performed at room temperature using HEK293 cells that could express hNav1.5 stably. The holding voltage of the membrane was transferred to 0 mV from −120 mV for 50 ms and then restored to −50 mV for 8 s. After that, the membrane potential was renewed to −120 mV for 20 ms, followed by a depolarization to 0 mV for 50 ms. At last, the potential was recovered to the holding voltage −120 mV for 30 ms. This progress was performed every 20 s. The compounds were administrated when the voltage of hNav1.5 was stable. Every concentration was tested for 5 min and all compounds were tested at several concentrations and with multiple cells.

mouse [3] = assay: Mouse hotplate assay; format: in vivo; details: even at a high dose of 100 mg/kg; data not shown
mouse [4] = assay: Mouse tail flick assay; format: in vivo; details: even at a high dose of 100 mg/kg; data not shown
[5] = read-out: Inhibitory Effect against Nav1.7, Activated State (TP−1)
[6] = read-out: Inhibitory Effect against Nav1.7, Inactivated State (TP−2)
[7] = i.p., phase II (15–30 min), mean ± SD, n = 8

T1 sequence (Q15858 whole entry): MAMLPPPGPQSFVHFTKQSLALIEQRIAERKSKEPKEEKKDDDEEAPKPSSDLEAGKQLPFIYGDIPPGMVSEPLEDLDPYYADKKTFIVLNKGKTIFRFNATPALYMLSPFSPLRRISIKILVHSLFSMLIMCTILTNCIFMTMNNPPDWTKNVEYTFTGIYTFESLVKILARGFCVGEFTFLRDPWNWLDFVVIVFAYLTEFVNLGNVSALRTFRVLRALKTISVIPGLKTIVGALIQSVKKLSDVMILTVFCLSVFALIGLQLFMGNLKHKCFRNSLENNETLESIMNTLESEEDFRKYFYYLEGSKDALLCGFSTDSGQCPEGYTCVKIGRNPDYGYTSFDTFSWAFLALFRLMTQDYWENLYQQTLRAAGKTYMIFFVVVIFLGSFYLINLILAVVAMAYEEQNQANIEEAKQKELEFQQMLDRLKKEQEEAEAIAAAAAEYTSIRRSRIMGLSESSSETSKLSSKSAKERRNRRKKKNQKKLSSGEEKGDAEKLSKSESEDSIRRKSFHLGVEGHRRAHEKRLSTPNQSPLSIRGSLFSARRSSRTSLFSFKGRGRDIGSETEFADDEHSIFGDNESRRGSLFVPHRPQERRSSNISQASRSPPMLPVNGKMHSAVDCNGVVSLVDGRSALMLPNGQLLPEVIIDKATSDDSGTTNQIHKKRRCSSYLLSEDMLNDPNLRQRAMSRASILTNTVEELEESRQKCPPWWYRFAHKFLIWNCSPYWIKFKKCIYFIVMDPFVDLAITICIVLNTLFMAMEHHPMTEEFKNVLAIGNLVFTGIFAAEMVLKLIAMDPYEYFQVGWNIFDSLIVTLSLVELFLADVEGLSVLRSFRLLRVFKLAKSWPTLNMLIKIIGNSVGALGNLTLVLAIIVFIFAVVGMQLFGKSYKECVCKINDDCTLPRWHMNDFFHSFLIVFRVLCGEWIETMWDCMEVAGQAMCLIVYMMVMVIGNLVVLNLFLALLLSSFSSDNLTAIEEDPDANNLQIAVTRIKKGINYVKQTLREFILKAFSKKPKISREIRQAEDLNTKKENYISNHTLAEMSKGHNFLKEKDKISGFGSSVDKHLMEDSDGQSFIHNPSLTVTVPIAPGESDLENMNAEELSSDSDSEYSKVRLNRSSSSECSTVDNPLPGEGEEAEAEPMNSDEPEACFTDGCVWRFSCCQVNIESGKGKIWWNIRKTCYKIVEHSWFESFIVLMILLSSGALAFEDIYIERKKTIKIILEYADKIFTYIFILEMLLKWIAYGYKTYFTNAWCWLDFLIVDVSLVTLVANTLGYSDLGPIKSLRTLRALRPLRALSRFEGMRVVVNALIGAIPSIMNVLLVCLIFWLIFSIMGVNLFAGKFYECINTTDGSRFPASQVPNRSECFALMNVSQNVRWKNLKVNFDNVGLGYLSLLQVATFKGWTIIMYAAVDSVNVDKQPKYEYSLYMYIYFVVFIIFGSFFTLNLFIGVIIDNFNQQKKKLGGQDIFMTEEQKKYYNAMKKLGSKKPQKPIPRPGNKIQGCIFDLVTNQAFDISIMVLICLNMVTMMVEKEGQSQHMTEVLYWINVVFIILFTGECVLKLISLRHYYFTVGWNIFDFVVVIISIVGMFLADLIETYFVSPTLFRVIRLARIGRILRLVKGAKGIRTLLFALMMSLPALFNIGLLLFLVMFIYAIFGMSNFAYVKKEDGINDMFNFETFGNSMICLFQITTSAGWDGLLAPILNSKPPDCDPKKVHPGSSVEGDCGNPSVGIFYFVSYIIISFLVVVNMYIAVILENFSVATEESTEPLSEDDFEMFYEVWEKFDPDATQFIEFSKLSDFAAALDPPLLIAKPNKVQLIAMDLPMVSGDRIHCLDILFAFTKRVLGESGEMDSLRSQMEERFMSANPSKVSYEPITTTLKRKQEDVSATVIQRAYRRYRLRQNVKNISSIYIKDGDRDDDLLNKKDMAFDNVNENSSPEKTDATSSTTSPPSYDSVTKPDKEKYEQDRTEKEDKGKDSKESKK
T2 sequence (Q9Y5Y9 whole entry): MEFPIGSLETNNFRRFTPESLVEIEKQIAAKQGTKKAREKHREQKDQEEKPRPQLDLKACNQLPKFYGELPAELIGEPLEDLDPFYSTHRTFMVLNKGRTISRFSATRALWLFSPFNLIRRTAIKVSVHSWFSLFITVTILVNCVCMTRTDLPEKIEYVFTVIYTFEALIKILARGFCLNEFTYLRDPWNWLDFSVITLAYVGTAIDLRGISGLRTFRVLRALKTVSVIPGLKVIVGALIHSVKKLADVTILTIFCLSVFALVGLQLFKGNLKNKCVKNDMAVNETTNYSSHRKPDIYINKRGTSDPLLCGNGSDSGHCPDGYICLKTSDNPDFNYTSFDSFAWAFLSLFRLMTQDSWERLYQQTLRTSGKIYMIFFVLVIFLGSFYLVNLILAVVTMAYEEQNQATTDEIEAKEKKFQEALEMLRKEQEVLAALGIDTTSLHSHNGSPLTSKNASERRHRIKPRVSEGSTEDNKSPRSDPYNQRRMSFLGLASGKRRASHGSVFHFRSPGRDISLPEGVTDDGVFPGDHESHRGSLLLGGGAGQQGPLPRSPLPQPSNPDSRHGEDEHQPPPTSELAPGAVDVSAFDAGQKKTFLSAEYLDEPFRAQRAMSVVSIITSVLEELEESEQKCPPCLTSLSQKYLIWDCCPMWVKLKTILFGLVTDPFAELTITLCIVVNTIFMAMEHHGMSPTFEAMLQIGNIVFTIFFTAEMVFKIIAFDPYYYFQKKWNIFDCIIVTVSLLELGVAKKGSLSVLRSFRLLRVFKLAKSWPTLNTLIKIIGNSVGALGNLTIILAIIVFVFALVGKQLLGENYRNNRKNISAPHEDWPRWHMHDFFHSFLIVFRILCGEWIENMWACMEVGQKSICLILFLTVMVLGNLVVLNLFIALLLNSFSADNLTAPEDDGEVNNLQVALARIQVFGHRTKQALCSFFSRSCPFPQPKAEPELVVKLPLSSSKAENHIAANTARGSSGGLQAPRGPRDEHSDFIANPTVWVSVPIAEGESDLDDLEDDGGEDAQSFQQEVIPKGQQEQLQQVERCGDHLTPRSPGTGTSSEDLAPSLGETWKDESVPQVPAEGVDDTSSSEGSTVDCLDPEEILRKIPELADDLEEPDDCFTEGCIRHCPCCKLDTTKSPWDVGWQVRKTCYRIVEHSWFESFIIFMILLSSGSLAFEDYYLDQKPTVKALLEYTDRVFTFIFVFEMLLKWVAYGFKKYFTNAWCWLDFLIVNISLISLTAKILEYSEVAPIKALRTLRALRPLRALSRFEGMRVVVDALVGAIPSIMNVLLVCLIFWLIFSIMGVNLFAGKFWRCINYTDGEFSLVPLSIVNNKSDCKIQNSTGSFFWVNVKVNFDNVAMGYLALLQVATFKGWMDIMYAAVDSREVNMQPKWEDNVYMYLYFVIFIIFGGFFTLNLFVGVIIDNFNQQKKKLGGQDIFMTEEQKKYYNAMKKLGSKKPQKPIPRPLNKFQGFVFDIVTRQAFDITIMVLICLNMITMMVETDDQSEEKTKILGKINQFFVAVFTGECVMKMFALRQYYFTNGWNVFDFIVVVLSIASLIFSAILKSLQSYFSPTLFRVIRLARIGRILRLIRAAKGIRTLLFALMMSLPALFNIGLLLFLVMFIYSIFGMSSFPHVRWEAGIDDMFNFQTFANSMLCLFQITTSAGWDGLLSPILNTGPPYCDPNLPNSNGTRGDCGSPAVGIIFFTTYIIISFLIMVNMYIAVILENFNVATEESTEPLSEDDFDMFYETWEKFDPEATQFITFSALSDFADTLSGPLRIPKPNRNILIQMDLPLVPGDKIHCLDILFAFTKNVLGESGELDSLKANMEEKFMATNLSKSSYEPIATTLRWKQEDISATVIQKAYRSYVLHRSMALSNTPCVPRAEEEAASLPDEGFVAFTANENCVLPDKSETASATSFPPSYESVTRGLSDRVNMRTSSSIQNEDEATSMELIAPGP

Row | inhibition at 10 µM (hNav1.7; [5]) | inhibition at 10 µM (hNav1.7; [6]) | Compound | inhibition in vivo at 10 mg/kg (ICR (CD−1) male mice [1]; [7]) | % Analgesia (acetic acid-induced writhing test) (ICR (CD-1) male mice) | other results
1 | 9.1 ± 4.3% | 38.6 ± 4.7% | C[C@H](NCc1ccc(COc2cccc3cccnc23)cc1)C(N)=O [Compound 7h, (S)-2-((4-((Quinolin-8-yloxy)methyl)benzyl)amino)propanamide] | 57.2 ± 30.1% | – | –
2 | 14.7 ± 0.2% | 46 ± 0.1% | C[C@H](NCc1cccc(COc2cccc3cccnc23)c1)C(N)=O [Compound 7g, (S)-2-((3-((Quinolin-8-yloxy)methyl)benzyl)amino)propanamide] | 35.6 ± 26.1% | – | –
3 | 3.7 ± 0.5% | 13.5 ± 0.4% | C[C@H](NCc1ccc(COc2ccc3ncccc3c2)cc1)C(N)=O [Compound 7d, (S)-2-((4-((Quinolin-6-yloxy)methyl)benzyl)amino)propanamide] | 20.9 ± 18.7% | – | –
4 | 3.6 ± 3.3% | 47.7 ± 2.7% | C[C@H](NCc1cccc(COc2ccc3cccnc3c2)c1)C(N)=O [Compound 7e, (S)-2-((3-((Quinolin-7-yloxy)methyl)benzyl)amino)propanamide] | 30.6 ± 14.7% | – | –
5 | -1.8 ± 3.2% | 31.6 ± 3.4% | C[C@H](NCc1ccc(COc2ccc3cccnc3c2)cc1)C(N)=O [Compound 7f, (S)-2-((4-((Quinolin-7-yloxy)methyl)benzyl)amino)propanamide] | 15.9 ± 17.6% | – | –
6 | 14.7 ± 5.4% | 29.8 ± 0.6% | C[C@H](NCc1ccc(COc2cccc3ncccc23)cc1)C(N)=O [Compound 7b, (S)-2-((4-((Quinolin-5-yloxy)methyl)benzyl)amino)propanamide] | 37.2 ± 25.3% | – | –
7 | 6.4 ± 4.9% | 23.8 ± 3.6% | C[C@H](NCc1cccc(COc2cccc3ncccc23)c1)C(N)=O [Compound 7a, (S)-2-((3-((Quinolin-5-yloxy)methyl)benzyl)amino)propanamide] | 48 ± 27.8% | – | –
8 | 8.6 ± 1.2% | 30 ± 2.9% | C[C@H](NCc1cccc(COc2ccc3ncccc3c2)c1)C(N)=O [Compound 7c, (S)-2-((3-((Quinolin-6-yloxy)methyl)benzyl)amino)propanamide] | 81.5 ± 14.8% | – | –

More lines, now with the values behind:

Row | Compound | inhibition at 10 µM (hNav1.7; [5]) | inhibition at 10 µM (hNav1.7; [6]) | inhibition in vivo at 10 mg/kg (ICR (CD−1) male mice [1]; [7]) | % Analgesia (acetic acid-induced writhing test) (ICR (CD-1) male mice) | other results
9 | C[C@H](NCc1ccc(COc2cccc3[nH]cnc23)cc1)C(N)=O [Compound 5b, (S)-2-((4-(((1H-Benzo[d]imidazol-4-yl)oxy)methyl)benzyl)amino)propanamide] | 3.7 ± 2% | 1.4 ± 0.6% | 27.4 ± 19.2% | – | –
10 | C[C@H](NCc1ccc(COc2ccc3[nH]cnc3c2)cc1)C(N)=O [Compound 5d, (S)-2-((4-(((1H-Benzo[d]imidazol-5-yl)oxy)methyl)benzyl)amino)propanamide] | 0.7 ± 0.8% | 1.5 ± 0.9% | 60.8 ± 32.2% | – | –
11 | C[C@H](NCc1ccc(COc2ccc3occc3c2)cc1)C(N)=O [Compound 6d, (S)-2-((4-((Benzofuran-5-yloxy)methyl)benzyl)amino)propanamide] | 10.9 ± 1.1% | 31.8 ± 0.3% | 42.2 ± 16.3% | 28.9 ± 8.5 % | –
12 | C[C@H](NCc1ccc(OCc2ccccc2F)cc1)C(N)=O [Ralfinamide, reference compound] | 8.1 ± 3.8% | 57.7 ± 3.4% | 42.4% | 44.4 ± 15.5 ^☆ % | Analgesic response (formalin test) (ICR (CD−1) male mice [2]): 59.7%; IC50 (hNav1.8): 36.3 ± 8.9 µM; IC50 (hNav1.7): 6.6 ± 1.6 µM; % Analgesia (formalin test) (ICR (CD−1) male mice [1]; [7]): 42.4 ± 23.3 %; inhibition at 10 µM (hNav1.5): 64.6 ± 3.2%
13 | C[C@H](NCc1cccc(COc2cccc3[nH]cnc23)c1)C(N)=O [Compound 5a, (S)-2-((3-(((1H-Benzo[d]imidazol-4-yl)oxy)methyl)benzyl)amino)propanamide] | 5.1 ± 1.2% | 10.7 ± 0.4% | 51 ± 21.6% | – | –
14 | C[C@H](NCc1ccc(COc2ccc3ccoc3c2)cc1)C(N)=O [Compound 6f, (S)-2-((4-((Benzofuran-6-yloxy)methyl)benzyl)amino)propanamide] | 12.4 ± 2.9% | 50.4 ± 3.6% | 67.8 ± 22.7% | 63.2 ± 13.3 ^☆ @ % | Analgesic effect in mouse hotplate assay (in words) (mouse [3]): no analgesic effect; Analgesic effect in tail flick assay (in words) (mouse [4]): no analgesic effect; IC50 (hNav1.8): 4.8 ± 0.7 µM; IC50 (hNav1.7): 8.1 ± 1.1 µM; Percentage of analgesia relative to ralfinamide (times higher) (ICR (CD−1) male mice [1]): 1.5–2 times; inhibition at 10 µM (hNav1.5): 48 ± 0.1%; Inhibitory activity against Nav1.5 (in words) (hNav1.5): moderate inhibitory activity
15 | C[C@H](NCc1ccc(COc2cccc3occc23)cc1)C(N)=O [Compound 6b, (S)-2-((4-((Benzofuran-4-yloxy)methyl)benzyl)amino)propanamide] | 11.8 ± 0.3% | 55.5 ± 2.5% | 48.4 ± 26.4% | 48.0 ± 5.8 ^☆ % | –
16 | C[C@H](NCc1cccc(COc2ccc3ccoc3c2)c1)C(N)=O [Compound 6e, (S)-2-((3-((Benzofuran-6-yloxy)methyl)benzyl)amino)propanamide] | 11.4 ± 1.6% | 58.5 ± 1.8% | 71.7 ± 22% | 45.7 ± 17.2 ^☆ % | Analgesic effect in mouse hotplate assay (in words) (mouse [3]): no analgesic effect; Analgesic effect in tail flick assay (in words) (mouse [4]): no analgesic effect; IC50 (hNav1.8): 10.1 ± 1.9 µM; IC50 (hNav1.7): 9.4 ± 2.7 µM; Percentage of analgesia relative to ralfinamide (times higher) (ICR (CD−1) male mice [1]): 1.5–2 times; inhibition at 10 µM (hNav1.5): 70.1 ± 2.2%; Inhibitory activity against Nav1.5 (in words) (hNav1.5): moderate inhibitory activity
17 | C[C@H](NCc1cccc(COc2ccc3occc3c2)c1)C(N)=O [Compound 6c, (S)-2-((3-((Benzofuran-5-yloxy)methyl)benzyl)amino)propanamide] | 12.2 ± 0.7% | 48.1 ± 4.2% | 30.2 ± 19.8% | 11.2 ± 7.6% | –
18 | C[C@H](NCc1cccc(COc2ccc3[nH]cnc3c2)c1)C(N)=O [Compound 5c, (S)-2-((3-(((1H-Benzo[d]imidazol-5-yl)oxy)methyl)benzyl)amino)propanamide] | 1.7 ± 0.3% | 2.6 ± 0.8% | 48.8 ± 15.5% | – | –
